# Read-outs that look alike come from different tables or passages of the source.
# Assays:
# [1] = system: ALS patients; assay: Fasudil treatment of patients with disease onset at least 24 months prior to treatment; format: in vivo, human
# Description: This could not have been predicted from the trials with edaravone, above. […] (Liu 2016). The invention is based on the surprising discovery that orally-administered fasudil can treat ALS patients with disease onset of about two years or more prior treatment. These patients include but are not limited to patients with more advanced disease, but also includes slow-progressing patients.
# [2] = system: ALS disease onset of between 3 and 36 months; details: 30 mg, twice a day, 6-month study; cited from earlier work
# [3] = system: human ALS patients; details: 30 mg intravenously twice daily over 20 consecutive working days; cited from earlier work
# [4] = in vivo, 1-hydroxy (M3) metabolite; cited from earlier work
# [5] = system: ALS patients; details: patients diagnosed two years or less; cited from earlier work
# [6] = system: ALS patients; details: enrollment of three years or less; cited from earlier work
# [7] = system: severe ALS patients; details: disease onset of less than three years; cited from earlier work
smiles,measurement,setting,value
"Cl.O=S(=O)(c1cccc2cnccc12)N1CCCNCC1 [Fasudil, Hexahydro-1-(5-isoquinolinesulfonyl)-1H-1,4-diazepine monohydrochloride hemihydrate]",benefit from treatment,[1],benefitted
same,disease modification,[2],did not result in any disease modification
same,outcome of compassionate use,[3],no conclusive results beyond safety
"O=S(=O)(c1cccc2c(O)nccc12)N1CCCNCC1 [M3, hydroxyfasudil]",half-life,[4],about 8 hours
CC1=NN(c2ccccc2)C(=O)C1 [edaravone],primary endpoint,[5],met the primary endpoint
same,primary endpoint,[6],did not meet the primary endpoint
same,treatment effect between placebo and edaravone,[7],failed to demonstrate any treatment effect
